Source: paper PMC8065212, “The active form of the influenza cap-snatching endonuclease inhibitor baloxavir marboxil is a tight binding inhibitor” (The Journal of Biological Chemistry, 2021)
“And” between values parts separate entries of the source, which are not always exact repeats. Equal entries are not always repeated. “Also recorded” adds a separate entry of the source. Where two headings read alike, the source gives them in different places.

Columns and labels:
[1] = molecular target: FluB-ht WT (recombinant influenza B heterotrimeric PA/PB1/PB2 polymerase, PA endonuclease) (Influenza B virus, UniProt Q5V8Z9); experiment: biochemical
FluB-ht WT [2] = format: biochemical; settings: 75 nM BXA
FluB-ht WT [3] = format: biochemical; settings: 75 nM BXA, 55 nM FluB-ht WT
FluB-ht = experiment: Michaelis-Menten kinetics of BXA inhibition; format: biochemical, Influenza B; settings: 25 nM FluB-ht, substrate as indicated
From the text: Supplementary Figure S4. Michaelis-Menten kinetics of BXA inhibition. (A) Scheme detailing the experimental setup and representative data showing the effect of BXA on substrate utilization by FluB-ht. (B) Graphic representation and analysis of the data presented in panel A are shown on the left-hand side graph. The effects of increasing concentrations of BXA on kcat and Km are illustrated on the right-hand side graph. Data represents the average of two independent experiments. The final reaction conditions were as follows: 30 mM Tris-HCL pH 7.5, 25 mM NaCl, 5 mM MgCl2, 25 nM FluB-ht, 1.7 µM vRNA, 5% DMSO, BXA as indicated and 20-nt capped substrate as indicated. The indicated substrate concentrations were achieved by mixing 0.1 µM 20-nt radiolabeled capped substrate RNA with increasing amounts of unlabeled substrate. […] The data point at 2.1 µM was therefore not considered for kcat and Km measurements. […] Tight binding of enzyme and inhibitor depletes the concentration of free enzyme and the steady-state assumption is no longer valid.

[4] = system: cap-snatching endonuclease (PA); settings: enzyme concentration not indicated; cited from earlier work
influenza infection = settings: cited from earlier work
influenza = settings: single dose, postexposure prophylaxis; placebo group 13.6%; cited from earlier work
influenza virus = settings: cited from earlier work

O=C1c2c(O)c(=O)ccn2N([C@@H]2c3ccccc3SCc3c2ccc(F)c3F)[C@@H]2COCCN12 [BXA, baloxavir acid]
IC50 [1]: 112 nM
Ki [1]: 12 nM
dependence of IC50 on substrate concentration ([1]; 100, 300 and 500 nM 20-nt substrate, 55 nM FluB-ht WT (Fig. S1)): independent within a narrow range of substrate concentrations
slope of plot of IC50 versus enzyme concentration ([1]; WT): 0.56 and ~0.5
inhibition of endonuclease activity by order of addition (FluB-ht WT [2]; 55 nM FluB-ht WT, 1 hour preincubation): inhibition was only observed under conditions where an E:I:Mg^2+ complex was preformed; also recorded: Preincubation E, I, and MgCl2 is required for inhibition
nuclease activity over longer periods of time after preformed E:I:Mg2+ complex (FluB-ht WT [2]; up to 120 min): negligible
preincubation time for maximal inhibition (FluB-ht WT [3]): ~30 min
effects of increasing concentrations of BXA on kcat and Km (FluB-ht): reduction in kcat and constant Km values
IC50 [4]: ~2 nM

COC(=O)OCOc1c2n(ccc1=O)N([C@@H]1c3ccccc3SCc3c1ccc(F)c3F)[C@@H]1COCCN1C2=O [BXM, Baloxavir marboxil]
reduction in time until symptom resolution (influenza infection; human, in vivo): 20–25%
household transmissions (influenza): 1.9%
EC50 (influenza virus): low nanomolar range

CCOC(=O)C1=C[C@@H](OC(CC)CC)[C@H](NC(C)=O)[C@@H](N)C1 [oseltamivir]
reduction in time until symptom resolution (influenza infection): 20–25%
